# US20130202614A1, “AUTOTAXIN PATHWAY MODULATION AND USES THEREOF” (B.S.R.C. "ALEXANDER FLEMING", priority 2010, published 2013)
# Columns and labels:
# ATX [1] = target: T1, ATX (Mus musculus, UniProt Q9R1E6); assay: ATX activity assay (FS-3 cleavage) in BAL fluids, LPS model; assay type: in vivo; settings: intratracheal prior to LPS; 24 hr
# T1 construct: from tissue; host or cells: BAL fluid of WT mice exposed to aerosolised LPS
# Protocol: Autotaxin activity in BALF of mice was determined using the cleavage of the ATX-specific fluorogenic substrate FS-3 (Echelon Biosciences, UT, USA). Assays were conducted in a final volume of 100 μl comprising 20 μl 5× assay buffer (700 mM NaCl, 25 mM KCl, 5 mM MgCl2 and 250 mM Tris, pH 8.0), 20 μl of FS-3 (final concentration 2.5 μM) and 60 μl of BALF (diluted 1:2 in 1×PBS). Reactions were incubated at 37° C. in a Tecan Infinite 200 microplate reader (Tecan Trading AG, Switzerland) set to make fluorescence measurements every 5 min for 1 hour. Autotaxin activity was quantitated by measuring the rate of increase in fluorescence at 528 nm with excitation at 485 nm.
# EAE mice = assay: Experimental autoimmune encephalomyelitis (EAE), animal model of MS; assay type: in vivo, mouse; settings: injected intraperitoneally twice a week at 10 mg/Kg
# Protocol: Active EAE in wild-type C57Bl/6 mice was induced as described. Briefly, the mice were challenged in the […] with an emulsion containing 50 μg of MOG p35-55 peptide ( ) supplemented with 8 mg/ml heat-inactivated Mycobacterium tuberculosis (H37Ra strain; Difco Laboratories) in CFA (Difco Laboratories) on day 0 in the tail base. Booster immunization with an identical emulsion was given on both sides. Bordetella pertussis toxin (PT) (List Biologicals) were administered i.p. (200 ng/mouse) 48 h after the immunization. For induction of EAE in MOGi-cre/Atx^n/n mice, the doses for MOG35-55 peptide and PT were the same as for wild type mice Atx^n/n. From mice injected at 8 to 12 weeks of age, representative animals were fixed for immunohistochemistry (4% paraformaldehyde in phosphate-buffered saline) and then 7-μm thick frozen sections were used for immunohistochemistry, or fixed in 10% buffered formalin overnight at 4° C. for histopathology. […]
# Mice were observed daily for clinical signs of EAE. The severity of EAE was evaluated and scored as follows: 0, no clinical disease; 1, tail paralysis; 2, hindlimb weakness and abnormal gait (incomplete paralysis of one or two hindlimbs); 3, paraplegia (complete paralysis of one or two hindlimbs); 4, quadriplegia; 5, moribund or dead animals.
# ATX [2] = target: T1, ATX; assay: ATX activity assay (FS-3 cleavage) in plasma of saline- and BLM-treated mice; assay type: in vivo; settings: both in saline- and BLM-treated mice
# Protocol: […] […] Reactions were incubated at 37° C. in a Tecan Infinite 200 microplate reader (Tecan Trading AG, Switzerland) set to make fluorescence measurements every 5 min for 1 hour. Autotaxin activity was quantitated by measuring the rate of increase in fluorescence at 528 nm with excitation at 485 nm.
# WT mice (C57/BL6) = assay: BLM-induced pulmonary fibrosis in mice; assay type: in vivo, mouse
# Excerpt: 8-12 week old littermate mice were divided into an experimental group that received intratracheal Bleomycin (BLM, 0.08 U) and a control group that received Normal Saline instead. Mice were sacrificed at 7 and 14 days post BLM instillation for pathology evaluation.
# Age and sex-matched 6-8 week old WT (C57/Bl6) mice were divided in four study groups according to the treatment regime.
# Group A (n=5) received i.p injections of Veh (water) twice per week for two weeks starting at day −1 and instilled with Saline intratracheally at day 0.
# Group B (n=3) received i.p injections of BRP-LPA (10 mg/Kg) twice per week for two weeks starting at day −1 and instilled with Saline intratracheally at day 0.
# Group C (n=9) received i.p injections of Veh twice per week for two weeks starting at day −1 and instilled with BLM (0.08 U) intratracheally at day 0.
# Group D (n=8) received i.p injections of BRP-LPA (10 mg/Kg) twice per week for two weeks starting at day −1 and instilled with BLM (0.08 U) intratracheally at day 0. A schematic representation of the time course of the protocol is depicted below.
# All mice were sacrificed at day 14 after BLM instillation for disease evaluation. […] Lungs were lavaged 3 times with 1 ml aliquots of saline (BAL) followed by perfusion through the right ventricle of the heart with 10 ml of PBS. BAL fluid was centrifuged and cell pellets were used for total cell counts with Trypan Blue while the supernatant was snap frozen.
# Right lung was instilled with 1 ml of buffered formalin, dissected and fixed O/N in formalin. Left lung was snap frozen and used for soluble collagen measurements using the Sircol assay.
# Schematic representation of BRP-LPA administration protocol. BRP-LPA (or water) was administered intraperioneally in mice starting one day before BLM (or Sal) instillation and every three other days until the end of the study (14 days). Pulmonary fibrosis was induced with a single i.t. instillation of BLM at day 0.
# Soluble collagen measurements were performed using the Sircol reagent according to manufacture's recommendations.
# CIA in DBA/1 mice = assay: Experimental arthritis (collagen induced arthritis, CIA) in mice; assay type: in vivo, mouse; settings: injected intraperitoneally twice a week
# WT mice = assay: LPS-induced lung inflammation (aerosolised LPS) in mice; assay type: in vivo, mouse
# Protocol: 6-8 week old littermate mice were divided into an experimental group that received aerosolised LPS (from Pseudomonas aeruginosa, 10 mg dissolved in 3 ml Normal Saline) and a control group that received Normal Saline instead. […] The LPS solution was administered by a custom-made nebuliser flowing at 4 l/min oxygen for 20-25 min into an airtight chamber containing 5-7 mice. All analyses were performed 24 h later.
# Upon euthanasia, blood was drawn from the vena cava and was added to 50 mM EDTA for plasma preparations. Lungs were lavaged with an aliquot of 1 ml normal saline followed by 2 ml of saline (Bronchoalveolar Lavage Fluid. BALF). BALF aliquots were centrifuged; the cell pellets were combined and used for total cell counts with Trypan Blue while supernatants were snap-frozen. Lungs were then perfused with 10 ml of PBS through the spontaneous beating right ventricle and the left lung was snap-frozen for future analysis while the right lung was fixed in 10% neutral buffered formalin. Tissues were embedded in paraffin, and 5-μm-thick sections were cut at the median transverse level of the lungs. Sections were mounted on glass slides and stained with H&E.
# Total protein concentration in BALFs was measured using the Bradford protein assay (Biorad, Hercules, Calif.) according to manufacturer's recommendations. OD readings of samples were converted to μg/ml using values obtained from a standard curve generated with serial dilutions of bovine serum albumin (50-500 μg/ml).
# ATX [3] = assay: ATX ELISA in plasma and BAL fluids of control and BLM treated mice; assay type: in vivo, mouse; settings: saline treated, naive mice; same trend in BLM-treated mice
# Protocol: To detect ATX in biological fluids, a direct ELISA assay was developed using the commercially available anti-phospholipase D polyclonal antibody (Cat. No. 10005375, Cayman chemical, USA). The bottom of a NUNC-IMMUNO 96 MicroWell Elisa plate was coated overnight with 100 μl of 1:200 diluted serum in 0.05 M carbonate/bicarbonate coating buffer, pH 9.5 (Cat. No. S7795/S7277, Sigma, Saint Louis, […]., USA), washed three times with 0.05% Tween-20 (Cat. No. P1379, Sigma, USA) in TBS and blocked with 0.1% Bovine Serum Albumin (Cat. No. A7888, Sigma, USA) in 0.05% TBST for 1 h at RT. For each ELISA assay, 100 μl of two-fold serial dilutions of recombinant ATX protein ranging from 0.1 to 1.6 μg/ml were plated as standard curve and treated as all samples.
# The plate was then incubated with 0.5 μg/ml detection antibody for 1 h and washed three times with 0.05% TBST. Autotaxin antigen was then detected with an anti-rabbit HRP-labeled secondary antibody (Cat. No. 4010-05, SouthernBiotech, USA) that was developed with TMB substrate (Cat. No. […], Sigma, USA). Readings were obtained at 450 nm. All samples and standards were assayed in triplicates.
structure (smiles),measurement,setting,value
"CCCCCCCCCCCCCCCC(=O)OC[C@@H](O)CC(Br)P(=O)(O)O (stereo partly drawn) [BrP-LPA, 1-Bromo-3(S)-hydroxy-4-(palmitoyloxy)butyl-phosphonate]",ATX enzymatic activity in BAL fluids,ATX [1],failed to detect lower levels of enzymatic activity
same,disease development (clinical score),EAE mice,attenuated disease development
same,ATX activity in plasma,ATX [2],reduced ATX activity
same,"fibrosis development (histopathology, H/E lung sections)","WT mice (C57/BL6); 10 mg/Kg i.p. biweekly, 14 days after BLM, vs vehicle",development of focal areas of fibrosis with a patchy distribution in lung parenchyma
same,soluble collagen accumulation,"WT mice (C57/BL6); 10 mg/Kg i.p., 14 days after BLM, vs Veh-treated mice",significant reduction of collagen accumulation
same,BAL total cell counts,"WT mice (C57/BL6); 14 days post BLM administration, Brp- vs Veh-treated",did not differ
same,total protein content in BAL fluids,WT mice (C57/BL6); vehicle- vs BrP-treated mice after BLM,did not differ
same,disease development (clinical and histopathological analysis),CIA in DBA/1 mice,attenuated disease development
same,BAL fluid total cell counts (recruitment of neutrophils in the lungs),WT mice; BrP-LPA 100 μg/mouse intratracheally prior to aerosolized LPS (10 mg),1.9×10^6±0.16
same,BAL protein content,"WT mice; LPS-exposed mice, vs vehicle-treated mice",significantly elevated
same,"LPS-induced lung inflammation and alveolar edema (histopathology, BALF total cell counts)","WT mice; intratracheal prior to LPS exposure, 24 hr",significant increases
same,total protein concentration in BAL fluids,WT mice; saline treated mice,increased total protein concentration
same,levels of ATX in plasma and in BAL fluids,ATX [3],non statistical increase
